{"source": "the kinase profiling compilation of Christmann-Franck et al. (2016)", "experiment_in_all_cases": "radiometric filter-binding kinase assay", "key": {"MARK3 (human)": {"biological_target": "MARK3 (human) (UniProt P27448)", "sequence (P27448 whole entry, looked up)": "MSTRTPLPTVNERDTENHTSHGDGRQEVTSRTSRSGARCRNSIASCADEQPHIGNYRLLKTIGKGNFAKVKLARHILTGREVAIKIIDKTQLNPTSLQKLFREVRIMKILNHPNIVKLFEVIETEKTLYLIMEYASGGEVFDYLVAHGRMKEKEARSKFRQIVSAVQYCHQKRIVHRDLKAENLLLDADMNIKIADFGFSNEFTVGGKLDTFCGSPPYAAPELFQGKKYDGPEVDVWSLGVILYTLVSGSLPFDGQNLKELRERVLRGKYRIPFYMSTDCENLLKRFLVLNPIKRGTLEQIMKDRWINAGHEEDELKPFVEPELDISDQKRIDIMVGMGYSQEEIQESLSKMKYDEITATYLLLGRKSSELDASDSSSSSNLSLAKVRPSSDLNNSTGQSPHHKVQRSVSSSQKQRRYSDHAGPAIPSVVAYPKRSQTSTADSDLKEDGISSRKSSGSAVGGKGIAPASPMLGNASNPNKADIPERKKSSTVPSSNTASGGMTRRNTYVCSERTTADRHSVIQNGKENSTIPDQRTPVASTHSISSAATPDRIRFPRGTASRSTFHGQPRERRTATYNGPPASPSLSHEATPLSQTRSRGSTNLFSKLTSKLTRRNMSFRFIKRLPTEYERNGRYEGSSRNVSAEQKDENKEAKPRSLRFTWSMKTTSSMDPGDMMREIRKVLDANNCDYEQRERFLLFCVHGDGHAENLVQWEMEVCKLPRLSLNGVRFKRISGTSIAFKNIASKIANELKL"}, "NEK7 (human)": {"biological_target": "NEK7 (human) (UniProt Q8TDX7)", "sequence (Q8TDX7 whole entry, looked up)": "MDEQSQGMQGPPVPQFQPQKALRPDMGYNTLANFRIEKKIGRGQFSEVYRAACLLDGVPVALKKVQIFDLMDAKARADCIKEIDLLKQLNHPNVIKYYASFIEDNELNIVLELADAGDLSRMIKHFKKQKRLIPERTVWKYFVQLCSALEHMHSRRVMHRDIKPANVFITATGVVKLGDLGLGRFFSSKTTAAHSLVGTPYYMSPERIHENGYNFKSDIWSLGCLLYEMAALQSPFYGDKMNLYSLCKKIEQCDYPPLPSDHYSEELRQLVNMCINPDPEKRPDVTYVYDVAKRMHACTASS"}, "CAMKK1 (human)": {"biological_target": "CAMKK1 (human) (UniProt Q8N5S9)", "sequence (Q8N5S9 whole entry, looked up)": "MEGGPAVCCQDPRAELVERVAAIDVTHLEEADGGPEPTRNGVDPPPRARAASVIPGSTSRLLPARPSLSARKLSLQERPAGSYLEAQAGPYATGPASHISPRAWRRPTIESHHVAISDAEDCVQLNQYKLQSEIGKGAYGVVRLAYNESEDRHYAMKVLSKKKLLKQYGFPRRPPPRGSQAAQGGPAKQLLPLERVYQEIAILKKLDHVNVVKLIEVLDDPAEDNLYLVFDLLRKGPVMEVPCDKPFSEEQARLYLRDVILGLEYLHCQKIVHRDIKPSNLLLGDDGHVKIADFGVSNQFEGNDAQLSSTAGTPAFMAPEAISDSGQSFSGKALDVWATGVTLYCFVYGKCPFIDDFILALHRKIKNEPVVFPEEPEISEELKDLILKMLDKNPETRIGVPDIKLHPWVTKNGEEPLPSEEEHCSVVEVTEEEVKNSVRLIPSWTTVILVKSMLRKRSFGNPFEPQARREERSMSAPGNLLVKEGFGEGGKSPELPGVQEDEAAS"}, "CHEK2 (human)": {"biological_target": "CHEK2 (human) (UniProt O96017)", "sequence (O96017 whole entry, looked up)": "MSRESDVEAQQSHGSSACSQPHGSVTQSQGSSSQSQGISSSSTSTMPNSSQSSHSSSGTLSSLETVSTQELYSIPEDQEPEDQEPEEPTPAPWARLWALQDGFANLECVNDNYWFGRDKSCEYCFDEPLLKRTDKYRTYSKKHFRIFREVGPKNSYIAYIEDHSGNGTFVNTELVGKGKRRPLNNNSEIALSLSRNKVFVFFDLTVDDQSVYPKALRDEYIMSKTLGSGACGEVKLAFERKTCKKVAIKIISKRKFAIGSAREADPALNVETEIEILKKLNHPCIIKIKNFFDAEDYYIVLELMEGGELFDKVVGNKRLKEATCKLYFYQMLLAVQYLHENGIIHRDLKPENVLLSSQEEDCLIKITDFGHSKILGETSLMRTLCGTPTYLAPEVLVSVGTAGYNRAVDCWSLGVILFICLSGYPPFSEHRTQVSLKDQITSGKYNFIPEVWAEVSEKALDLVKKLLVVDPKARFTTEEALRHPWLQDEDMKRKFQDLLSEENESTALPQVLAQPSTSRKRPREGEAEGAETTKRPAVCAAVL"}, "AURKC (human)": {"biological_target": "AURKC (human) (UniProt Q9UQB9)", "sequence (Q9UQB9 whole entry, looked up)": "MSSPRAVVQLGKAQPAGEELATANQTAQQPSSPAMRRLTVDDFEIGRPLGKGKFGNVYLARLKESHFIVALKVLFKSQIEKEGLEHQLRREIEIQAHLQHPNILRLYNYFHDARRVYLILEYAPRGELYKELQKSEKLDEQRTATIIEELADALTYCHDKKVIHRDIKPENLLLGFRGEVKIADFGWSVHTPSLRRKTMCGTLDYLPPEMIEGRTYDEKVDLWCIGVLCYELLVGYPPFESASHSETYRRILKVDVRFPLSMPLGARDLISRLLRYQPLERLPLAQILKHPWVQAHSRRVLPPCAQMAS"}}, "data": [{"compound": "Oc1ccc(/C=C/c2cc(O)cc(O)c2)cc1", "values": [{"measurement": "residual activity", "setting": "MARK3 (human); compound 1.0 µM", "value": 99, "unit": "%"}, {"measurement": "residual activity", "setting": "MARK3 (human); compound 10.0 µM", "value": 82, "unit": "%"}, {"measurement": "residual activity", "setting": "MARK3 (human); compound 50.0 µM", "value": 41, "unit": "%"}, {"measurement": "residual activity", "setting": "NEK7 (human); compound 1.0 µM", "value": 94, "unit": "%"}, {"measurement": "residual activity", "setting": "NEK7 (human); compound 50.0 µM", "value": 95, "unit": "%"}, {"measurement": "residual activity", "setting": "CAMKK1 (human); compound 1.0 µM", "value": 98, "unit": "%"}, {"measurement": "residual activity", "setting": "CAMKK1 (human); compound 50.0 µM", "value": 30, "unit": "%"}, {"measurement": "residual activity", "setting": "CHEK2 (human); compound 1.0 µM", "value": 84, "unit": "%"}, {"measurement": "residual activity", "setting": "CHEK2 (human); compound 10.0 µM", "value": 79, "unit": "%"}, {"measurement": "residual activity", "setting": "CHEK2 (human); compound 50.0 µM", "value": 14, "unit": "%"}, {"measurement": "residual activity", "setting": "AURKC (human); compound 1.0 µM", "value": 75, "unit": "%"}, {"measurement": "residual activity", "setting": "AURKC (human); compound 50.0 µM", "value": 32, "unit": "%"}]}]}
